Assay results: patent US20250230193A1, “CYCLIC COMPOUND HAVING SELECTIVE KRAS INHIBITORY EFFECT ON HRAS AND NRAS” (CHUGAI SEIYAKU KABUSHIKI KAISHA, priority 2022, published 2025)

Legend:
[1] = target: GDP-bound NRAS wild-type protein (Homo sapiens, UniProt P01111); assay: Binding to NRAS by surface plasmon resonance (SPR), Single Cycle Kinetics; settings: KD ratio NRAS/KRAS, SPR
[2] = target: GDP-bound HRAS wild-type protein (Homo sapiens, UniProt P01112); assay: Binding to HRAS by surface plasmon resonance (SPR), Single Cycle Kinetics; settings: KD ratio HRAS/KRAS, SPR
GDP-bound HRAS wild-type protein, sequence (P01112 whole entry): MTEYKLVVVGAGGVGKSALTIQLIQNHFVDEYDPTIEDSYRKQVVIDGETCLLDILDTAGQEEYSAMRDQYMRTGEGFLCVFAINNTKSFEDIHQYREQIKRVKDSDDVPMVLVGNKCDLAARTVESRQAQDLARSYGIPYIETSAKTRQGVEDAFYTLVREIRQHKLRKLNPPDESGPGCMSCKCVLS

GDP-bound NRAS wild-type protein, sequence (P01111 whole entry): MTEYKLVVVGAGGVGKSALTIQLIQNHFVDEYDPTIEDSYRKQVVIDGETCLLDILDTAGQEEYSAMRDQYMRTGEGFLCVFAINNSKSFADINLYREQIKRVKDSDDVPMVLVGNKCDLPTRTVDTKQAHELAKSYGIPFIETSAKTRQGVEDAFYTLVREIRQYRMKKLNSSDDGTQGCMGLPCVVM

Row | SMILES | NRAS/KRAS (ratio of KD value with respect to GDP-bound NRAS wild-type protein to KD value with respect to KRAS) [1] | HRAS/KRAS (ratio of KD value with respect to GDP-bound HRAS wild-type protein to KD value with respect to KRAS) [2]
1 | CC[C@H](C)[C@@H]1NC(=O)[C@H](CC)N(C)C(=O)C[C@@H](C(=O)N(C)C)N(CC)C(=O)[C@H](C2CCCC2)N(C)C(=O)C2(CCC2)NC(=O)[C@@H]2C[C@H](N3CCC(F)(F)CC3)CN2C(=O)[C@H](CCc2cc(F)c(C(F)(F)F)c(F)c2)NC(=O)CN(C)C(=O)[C@H](Cc2ccc(C(F)(F)F)cc2)N2CCCC[C@@H](C2=O)N(C)C(=O)CN(C)C1=O [PP0659] | B (a compound having 3 or more and less than 10 is denoted as B) | B (a compound having 3 or more and less than 10 is denoted as B)
2 | CC[C@H](C)[C@@H]1NC(=O)[C@H](CC)N(C)C(=O)C[C@@H](C(=O)N(C)C)N(CC)C(=O)[C@H](C2CCCC2)N(C)C(=O)C2(CCC2)NC(=O)[C@@H]2CCN2C(=O)[C@H](CCc2cc(F)c(C(F)(F)F)c(F)c2)NC(=O)CN(C)C(=O)[C@H](Cc2ccc(C(F)(F)F)cc2)N2CCCC[C@@H](C2=O)N(C)C(=O)CN(C)C1=O [PP0660] | B (a compound having 3 or more and less than 10 is denoted as B) | B (a compound having 3 or more and less than 10 is denoted as B)
3 | CC[C@H](C)[C@@H]1NC(=O)[C@H](CC)N(C)C(=O)C[C@@H](C(=O)N(C)C)N(CC)C(=O)[C@H](C2CCCC2)N(C)C(=O)C2(CCC2)NC(=O)[C@@H]2CCCCN2C(=O)[C@H](CCc2cc(F)c(C(F)(F)F)c(F)c2)NC(=O)CN(C)C(=O)[C@H](Cc2ccc(C(F)(F)F)cc2)N2CCCC[C@@H](C2=O)N(C)C(=O)CN(C)C1=O [PP0661] | C (A compound having a KD ratio of 0.1 or more and less than 3 is denoted as C) | B (a compound having 3 or more and less than 10 is denoted as B)
4 | CC[C@H](C)[C@@H]1NC(=O)[C@H](CC(C)C)N(C)C(=O)C[C@@H](C(=O)N2CCOCC2)N(C)C(=O)[C@H](C2CCCC2)N(C)C(=O)C2(CCCC2)NC(=O)[C@@H]2[C@@H](O)CCN2C(=O)[C@H](CCc2cc(F)c(C(F)(F)F)c(F)c2)NC(=O)CN(C)C(=O)[C@H](Cc2ccc(C(F)(F)F)cc2)N2CCCCC[C@@H](C2=O)N(C)C(=O)CN(C)C1=O [PP0662] | B (a compound having 3 or more and less than 10 is denoted as B) | B (a compound having 3 or more and less than 10 is denoted as B)
5 | CCO[C@@H]1C[C@H]2C(=O)NC3(CCC3)C(=O)N(C)[C@@H](C3CCCC3)C(=O)N(C)[C@H](C(=O)N(C)C)CC(=O)N(C)[C@@H](CC)C(=O)N[C@@H]([C@@H](C)CC)C(=O)N(C)CC(=O)N(C)[C@H]3CCCCCN(C3=O)[C@@H](Cc3ccc(C(F)(F)F)cc3)C(=O)N(C)CC(=O)N[C@@H](CCc3cc(F)c(C(F)(F)F)c(F)c3)C(=O)N2C1 [PP0663] | B (a compound having 3 or more and less than 10 is denoted as B) | B (a compound having 3 or more and less than 10 is denoted as B)
6 | C=CC[C@H]1C(=O)N[C@@H]([C@@H](C)CC)C(=O)N(C)CC(=O)N(C)[C@H]2CCCCCN(C2=O)[C@@H](Cc2ccc(C(F)(F)F)cc2)C(=O)N(C)CC(=O)N[C@@H](CCc2cc(F)c(C(F)(F)F)c(F)c2)C(=O)N2C[C@H](OCC)C[C@H]2C(=O)NC2(CCC2)C(=O)N(C)[C@@H](C2CCCC2)C(=O)N(C)[C@H](C(=O)N(C)C)CC(=O)N1C [PP0665] | B (a compound having 3 or more and less than 10 is denoted as B) | B (a compound having 3 or more and less than 10 is denoted as B)
7 | C#CC[C@H]1C(=O)N[C@@H]([C@@H](C)CC)C(=O)N(C)CC(=O)N(C)[C@H]2CCCCCN(C2=O)[C@@H](Cc2ccc(C(F)(F)F)cc2)C(=O)N(C)CC(=O)N[C@@H](CCc2cc(F)c(C(F)(F)F)c(F)c2)C(=O)N2C[C@H](OCC)C[C@H]2C(=O)NC2(CCC2)C(=O)N(C)[C@@H](C2CCCC2)C(=O)N(C)[C@H](C(=O)N(C)C)CC(=O)N1C [PP0666] | B (a compound having 3 or more and less than 10 is denoted as B) | B (a compound having 3 or more and less than 10 is denoted as B)
8 | CCO[C@@H]1C[C@H]2C(=O)NC3(CCC3)C(=O)N(C)[C@@H](C3CCCC3)C(=O)N(C)[C@H](C(=O)N(C)C)CC(=O)N(C)[C@@H](CC3CC3)C(=O)N[C@@H]([C@@H](C)CC)C(=O)N(C)CC(=O)N(C)[C@H]3CCCCCN(C3=O)[C@@H](Cc3ccc(C(F)(F)F)cc3)C(=O)N(C)CC(=O)N[C@@H](CCc3cc(F)c(C(F)(F)F)c(F)c3)C(=O)N2C1 [PP0667] | B (a compound having 3 or more and less than 10 is denoted as B) | B (a compound having 3 or more and less than 10 is denoted as B)
9 | CCO[C@@H]1C[C@H]2C(=O)NC3(CCC3)C(=O)N(C)[C@@H](C3CCCC3)C(=O)N(C)[C@H](C(=O)N(C)C)CC(=O)N(C)[C@@H](CC3CCC3)C(=O)N[C@@H]([C@@H](C)CC)C(=O)N(C)CC(=O)N(C)[C@H]3CCCCCN(C3=O)[C@@H](Cc3ccc(C(F)(F)F)cc3)C(=O)N(C)CC(=O)N[C@@H](CCc3cc(F)c(C(F)(F)F)c(F)c3)C(=O)N2C1 [PP0668] | B (a compound having 3 or more and less than 10 is denoted as B) | B (a compound having 3 or more and less than 10 is denoted as B)
10 | CCO[C@@H]1C[C@H]2C(=O)NC3(CCC3)C(=O)N(C)[C@@H](C3CCCC3)C(=O)N(C)[C@H](C(=O)N(C)C)CC(=O)N(C)[C@@H](CC(C)(C)C)C(=O)N[C@@H]([C@@H](C)CC)C(=O)N(C)CC(=O)N(C)[C@H]3CCCCCN(C3=O)[C@@H](Cc3ccc(C(F)(F)F)cc3)C(=O)N(C)CC(=O)N[C@@H](CCc3cc(F)c(C(F)(F)F)c(F)c3)C(=O)N2C1 [PP0669] | B (a compound having 3 or more and less than 10 is denoted as B) | B (a compound having 3 or more and less than 10 is denoted as B)
11 | CCO[C@@H]1C[C@H]2C(=O)NC3(CCC3)C(=O)N(C)[C@@H](C3CCCC3)C(=O)N(C)[C@H](C(=O)N(C)C)CC(=O)N(C)[C@@H](CC3CCCC3)C(=O)N[C@@H]([C@@H](C)CC)C(=O)N(C)CC(=O)N(C)[C@H]3CCCCCN(C3=O)[C@@H](Cc3ccc(C(F)(F)F)cc3)C(=O)N(C)CC(=O)N[C@@H](CCc3cc(F)c(C(F)(F)F)c(F)c3)C(=O)N2C1 [PP0670] | B (a compound having 3 or more and less than 10 is denoted as B) | B (a compound having 3 or more and less than 10 is denoted as B)
12 | CCO[C@@H]1C[C@H]2C(=O)NC3(CCC3)C(=O)N(C)[C@@H](C3CCCC3)C(=O)N(C)[C@H](C(=O)N(C)C)CC(=O)N(C)[C@@H](CC3CCCCC3)C(=O)N[C@@H]([C@@H](C)CC)C(=O)N(C)CC(=O)N(C)[C@H]3CCCCCN(C3=O)[C@@H](Cc3ccc(C(F)(F)F)cc3)C(=O)N(C)CC(=O)N[C@@H](CCc3cc(F)c(C(F)(F)F)c(F)c3)C(=O)N2C1 [PP0671] | B (a compound having 3 or more and less than 10 is denoted as B) | B (a compound having 3 or more and less than 10 is denoted as B)
13 | CCO[C@@H]1C[C@H]2C(=O)NC3(CCC3)C(=O)N(C)[C@@H](C3CCCC3)C(=O)N(C)[C@H](C(=O)N(C)C)CC(=O)N(C)[C@@H](Cc3ccccc3)C(=O)N[C@@H]([C@@H](C)CC)C(=O)N(C)CC(=O)N(C)[C@H]3CCCCCN(C3=O)[C@@H](Cc3ccc(C(F)(F)F)cc3)C(=O)N(C)CC(=O)N[C@@H](CCc3cc(F)c(C(F)(F)F)c(F)c3)C(=O)N2C1 [PP0672] | B (a compound having 3 or more and less than 10 is denoted as B) | B (a compound having 3 or more and less than 10 is denoted as B)
14 | CCO[C@@H]1C[C@H]2C(=O)NC3(CCC3)C(=O)N(C)[C@@H](C3CCCC3)C(=O)N(C)[C@H](C(=O)N(C)C)CC(=O)N(C)[C@@H](Cc3cccnc3)C(=O)N[C@@H]([C@@H](C)CC)C(=O)N(C)CC(=O)N(C)[C@H]3CCCCCN(C3=O)[C@@H](Cc3ccc(C(F)(F)F)cc3)C(=O)N(C)CC(=O)N[C@@H](CCc3cc(F)c(C(F)(F)F)c(F)c3)C(=O)N2C1 [PP0673] | B (a compound having 3 or more and less than 10 is denoted as B) | B (a compound having 3 or more and less than 10 is denoted as B)
15 | CCO[C@@H]1C[C@H]2C(=O)NC3(CCC3)C(=O)N(C)[C@@H](C3CCCC3)C(=O)N(C)[C@H](C(=O)N(C)C)CC(=O)N(C)[C@@H](COC)C(=O)N[C@@H]([C@@H](C)CC)C(=O)N(C)CC(=O)N(C)[C@H]3CCCCCN(C3=O)[C@@H](Cc3ccc(C(F)(F)F)cc3)C(=O)N(C)CC(=O)N[C@@H](CCc3cc(F)c(C(F)(F)F)c(F)c3)C(=O)N2C1 [PP0674] | B (a compound having 3 or more and less than 10 is denoted as B) | B (a compound having 3 or more and less than 10 is denoted as B)
